# What was measured:
# Assay type in all cases: physicochemical
# [1] = Headspace Method, air/solvent partition out of isopropyl myristate (IPM); settings: relative to ethylvanillin
# Experimental: (§1) Perfume headspace data is collected for various materials according to the method provided below.
# (§2) The partition coefficients are calculated by determining the amount of PRM in the headspace above a solution with a known concentration using a GC/FID-MS (Agilent 7890 and 5977A MSD) with a thermal desorption unit (Gerstel MPS2) and Dynamic Headspace Sampler (Gerstel DHS). This technique allows for automated headspace collections using the MultiPurposeSampler (MPS). The PRMs of interest are prepared at a known concentration in isopropyl myristate (IPM) or dipropylene glycol methyl ether (DPM), and 1 mL is pipetted in a 20 mL headspace vial. […]
# (§3) Analytical standards can be obtained from Sigma Aldrich, St. Louis, MO and BioSynth, UK. A stock solution is prepared at approximately 0.5 g/L. The stock solution is then diluted to 4 to 5 concentrations ranging from approximately 0.05 g/L to 0.00005 g/L. These standard solutions are then analyzed by GC/MS. […]
# (§4) Quantification of the headspace is performed by the PRM target m/z area response of the perfume component and the linear equation of the calibration plot.
# (§5) Perfume headspace data is collected for various materials according to the Headspace Method provided above in the Test Methods section. The Air/Solvent partition coefficients are determined and indexed accordingly (e.g., where the partition coefficient for ethylvanillin is set at 1.00).
# [2] = Headspace Method, air/solvent partition out of dipropylene glycol methyl ether (DPM); settings: relative to ethylvanillin
# Experimental: as §1, §2, §3, §4, §5
# [3] = Electronic air freshener device test of DPM solutions (crystallization, weight loss); settings: for crystal formation in air freshener device over time: 2, 5 and 10 wt. % solutions in DPM, plugged-in device, inspected daily for 4 weeks
# Experimental: Each solution (24 mL) was added to a P&G electronic air freshener device and plugged in to a standard 120v outlet. The devices were inspected and weighed daily for 4 weeks. The mass of each device was no longer recorded after the device stopped losing weight.
# FIGS. 3-5 show the % weight loss of each solution in the P&G electronic air freshener device.
goes into the headspace more than ethylvanillin out of IPM [1],goes into the headspace more than ethylvanillin out of DPM [2],crystal formation in air freshener device over time [3],SMILES,"weight loss rate of solution in air freshener device ([3]; 2, 5 and 10 wt. % in DPM, most noticeable in the 5% and 10% solutions)"
about 6.2 ×,about 94 ×,no crystals formed,"CCOc1cccc(C=O)c1O [ortho-Ethylvanillin, 2-hydroxy-3-ethoxybenzaldehyde]",steeper weight loss rate than the EV and V solutions
–,–,crystals were seen to form,"COc1cc(C=O)ccc1O [Vanillin, reference compound]",–

SMILES,goes into the headspace more than ethylvanillin out of IPM [1],goes into the headspace more than ethylvanillin out of DPM [2],crystal formation in air freshener device over time [3],"weight loss rate of solution in air freshener device ([3]; 2, 5 and 10 wt. % in DPM, most noticeable in the 5% and 10% solutions)"
"CCOc1cc(C=O)ccc1O [Ethylvanillin, reference compound]",–,–,crystals were seen to form,–

# Reference: US20250312504A1, “VOLATILE COMPOSITION […] FOR COMPOSITIONS COMPRISING A META-(C1-C4 ALKOXY) […]” (The Procter & Gamble Company, priority 2024, published 2025)
